According to PubChem BioAssay (NCI):
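1) Cells in 96-well plates. 2) Compound, 48 h, 5 concentrations. 3) Linear interpolation between surrounding doses. 4) Unreached endpoint = highest concentration. GI50: concentration for 50% inhibition of growth. TGI: concentration producing complete growth inhibition.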

Tests used:
Test in all cases: DTP human tumour cell line panel, 48 h
[1] = tested on: M14 melanoma
[2] = tested on: SF-295 CNS
[3] = tested on: MCF7 breast
[4] = tested on: SR leukemia
[5] = tested on: SF-539 CNS
[6] = tested on: T-47D breast
[7] = tested on: A549 NSCLC
[8] = tested on: NCI-H460 lung
[9] = tested on: BT-549 breast
[10] = tested on: KM12 colon
[11] = tested on: OVCAR-8 ovarian
[12] = tested on: HOP-62 NSCLC
[13] = tested on: EKVX NSCLC
[14] = tested on: NCI-H23 lung
[15] = tested on: PC-3 prostate
[16] = tested on: UO-31 renal
[17] = tested on: SK-OV-3 ovarian
[18] = tested on: LOX IMVI melanoma
[19] = tested on: CCRF-CEM leukemia
[20] = tested on: SK-MEL-2 melanoma
[21] = tested on: HT29 colon
[22] = tested on: MDA-MB-231 breast
[23] = tested on: HCT-116 colon
[24] = tested on: NCI/ADR-RES ovarian
[25] = tested on: HL-60(TB) leukemia
[26] = tested on: UACC-257 melanoma
[27] = tested on: RXF 393 renal
[28] = tested on: MOLT-4 leukemia
[29] = tested on: SN12C renal
[30] = tested on: SF-268 CNS
[31] = tested on: UACC-62 melanoma
[32] = tested on: SNB-19 CNS
[33] = tested on: ACHN renal
[34] = tested on: RPMI-8226 leukemia
[35] = tested on: K-562 leukemia
[36] = tested on: TK-10 renal
[37] = tested on: OVCAR-3 ovarian
[38] = tested on: MDA-MB-435
[39] = tested on: HOP-92 NSCLC
[40] = tested on: COLO 205 colon
[41] = tested on: DU-145 prostate
[42] = tested on: SK-MEL-28 melanoma
[43] = tested on: CAKI-1 renal
[44] = tested on: MALME-3M melanoma
[45] = tested on: HCT-15 colon
[46] = tested on: OVCAR-5 ovarian
[47] = tested on: NCI-H522 lung
[48] = tested on: U251 CNS
[49] = tested on: HS 578T breast
[50] = tested on: HCC-2998 colon
[51] = tested on: NCI-H226 lung
[52] = tested on: 786-0 renal
[53] = tested on: A498 renal
[54] = tested on: SNB-75 CNS
[55] = tested on: OVCAR-4 ovarian
[56] = tested on: SW-620 colon
[57] = tested on: IGROV1 ovarian
[58] = tested on: SK-MEL-5 melanoma

N#CSC1CCCCNC1=O (centres undefined)
TGI [1]: 39.3 µM | TGI [2]: 30.7 µM | TGI [3]: 18.3 µM | TGI [4]: 38.9 µM | TGI [5]: 26.5 µM | TGI [6]: 52.5 µM | TGI [7]: 60 µM | TGI [8]: 28.7 µM | TGI [9]: 21.5 µM | TGI [10]: 31.3 µM | TGI [11]: 33.6 µM | TGI [12]: 41.8 µM | TGI [13]: 37.5 µM | TGI [14]: 24.4 µM | TGI [15]: 34 µM | TGI [16]: 31.1 µM | TGI [17]: 21.9 µM | TGI [18]: > 100 µM | TGI [19]: 34.8 µM | TGI [20]: 27 µM | TGI [21]: 26.5 µM | TGI [22]: 33 µM | TGI [23]: > 100 µM | TGI [24]: 29.1 µM | TGI [25]: 87.4 µM | TGI [26]: 34.6 µM | TGI [27]: 34 µM | TGI [28]: 15 µM | TGI [29]: 30.8 µM | TGI [30]: 26.2 µM | TGI [31]: 29.1 µM | TGI [32]: 30.2 µM | TGI [33]: 29.9 µM | TGI [34]: 29.3 µM | TGI [35]: 62.3 µM | TGI [36]: 30.7 µM | TGI [37]: 29.5 µM | TGI [38]: 34.8 µM | TGI [39]: 20.9 µM | TGI [40]: 30.2 µM | TGI [41]: 32.8 µM | TGI [42]: 28.1 µM | TGI [43]: 31.8 µM | TGI [44]: 31.4 µM | TGI [45]: 28.6 µM | TGI [46]: 13.2 µM | TGI [47]: 21.3 µM | TGI [48]: 42.6 µM | TGI [49]: 50.4 µM | TGI [50]: 32.4 µM | TGI [51]: 25.7 µM | TGI [52]: 32.6 µM

CCCCC(=O)c1ccc2ccccc2c1O
TGI [1]: > 100 µM | TGI [2]: > 100 µM | TGI [3]: > 100 µM | TGI [4]: > 100 µM | TGI [5]: > 100 µM | TGI [6]: > 100 µM | TGI [8]: > 100 µM | TGI [53]: > 100 µM | TGI [54]: > 100 µM | TGI [9]: > 100 µM | TGI [10]: > 100 µM | TGI [11]: > 100 µM | TGI [12]: > 100 µM | TGI [13]: > 100 µM | TGI [14]: > 100 µM | TGI [55]: > 100 µM | TGI [15]: > 100 µM | TGI [16]: > 100 µM | TGI [17]: > 100 µM | TGI [18]: > 100 µM | TGI [19]: > 100 µM | TGI [20]: > 100 µM | TGI [21]: > 100 µM | TGI [22]: > 100 µM | TGI [23]: > 100 µM | TGI [24]: > 100 µM | TGI [25]: > 100 µM | TGI [26]: > 100 µM | TGI [27]: > 100 µM | TGI [28]: > 100 µM | TGI [30]: > 100 µM | TGI [31]: > 100 µM | TGI [32]: > 100 µM | TGI [33]: > 100 µM | TGI [34]: > 100 µM | TGI [35]: > 100 µM | TGI [36]: > 100 µM | TGI [56]: > 100 µM | TGI [38]: > 100 µM | TGI [57]: > 100 µM | TGI [39]: > 100 µM | TGI [40]: > 100 µM | TGI [41]: > 100 µM | TGI [42]: > 100 µM | TGI [43]: > 100 µM | TGI [45]: > 100 µM | TGI [58]: > 100 µM | TGI [48]: > 100 µM | TGI [49]: > 100 µM | TGI [50]: > 100 µM | TGI [51]: > 100 µM | TGI [52]: > 100 µM

O=S(=O)(NC1=NCCN1C(=S)SN1CCn2c1nsc2=S)c1cccc(Cl)c1
GI50 [1]: 15.8 µM | TGI [1]: 33.2 µM | GI50 [2]: 21.8 µM | TGI [2]: 58.1 µM | GI50 [3]: 15.9 µM | TGI [3]: 36.3 µM | GI50 [4]: 4.89 µM | TGI [4]: 50.7 µM | GI50 [5]: 19.4 µM | TGI [5]: 34.2 µM | GI50 [6]: 6.81 µM | TGI [6]: 25.7 µM | GI50 [7]: 30.3 µM | TGI [7]: 91.2 µM | GI50 [8]: 22.5 µM | TGI [8]: 72.9 µM | GI50 [53]: 34.3 µM | TGI [53]: 81.5 µM | GI50 [54]: 29.2 µM | TGI [54]: 55.6 µM | GI50 [9]: 22.3 µM | TGI [9]: 68.4 µM | GI50 [10]: 16.6 µM | TGI [10]: 34.1 µM | GI50 [11]: 26.4 µM | TGI [11]: > 100 µM | GI50 [12]: 18.5 µM | TGI [12]: 37.6 µM | GI50 [13]: 38.7 µM | TGI [13]: > 100 µM | GI50 [55]: 22.2 µM | TGI [55]: 54.6 µM | GI50 [15]: 15.4 µM | TGI [15]: 47.2 µM | GI50 [16]: 14.4 µM | TGI [16]: 28.6 µM | GI50 [18]: 10.7 µM | TGI [18]: 22.9 µM | GI50 [19]: 3.81 µM | TGI [19]: > 100 µM | GI50 [20]: 26 µM | TGI [20]: 98.9 µM | GI50 [21]: 20.5 µM | TGI [21]: 74 µM | GI50 [22]: 15.3 µM | TGI [22]: 50.7 µM | GI50 [23]: 13.2 µM | TGI [23]: 28.1 µM | GI50 [24]: 21.4 µM | TGI [24]: 69.3 µM | GI50 [25]: 13.1 µM | TGI [25]: 80.5 µM | GI50 [26]: 18.6 µM | TGI [26]: 39.5 µM | GI50 [27]: 4.04 µM | TGI [27]: 21.6 µM | GI50 [28]: 12.8 µM | TGI [28]: > 100 µM | GI50 [29]: 14.9 µM | TGI [29]: 40.6 µM | GI50 [30]: 20.2 µM | TGI [30]: 46.7 µM | GI50 [31]: 15.4 µM | TGI [31]: 34.3 µM | GI50 [32]: 19.1 µM | TGI [32]: 44.4 µM | GI50 [33]: 13.8 µM | TGI [33]: 30.6 µM | GI50 [34]: 5.05 µM | TGI [34]: > 100 µM | GI50 [35]: 13.4 µM | TGI [35]: > 100 µM | GI50 [36]: 11.5 µM | TGI [36]: 28.5 µM | GI50 [37]: 12.9 µM | TGI [37]: 28.5 µM | GI50 [56]: 22.9 µM | TGI [56]: > 100 µM | GI50 [38]: 9.69 µM | TGI [38]: 27.7 µM | GI50 [57]: 12.4 µM | TGI [57]: 36.8 µM | GI50 [39]: 25.4 µM | TGI [39]: 71.3 µM | GI50 [40]: 7.48 µM | TGI [40]: 20.7 µM | GI50 [41]: 22.2 µM | TGI [41]: 64.6 µM | GI50 [42]: 21.4 µM | TGI [42]: 39.7 µM | GI50 [43]: 6.24 µM | TGI [43]: 23.5 µM | GI50 [45]: 11.9 µM | TGI [45]: 26.7 µM | GI50 [46]: 19.7 µM | TGI [46]: 39.2 µM | GI50 [58]: 16.7 µM | TGI [58]: 31.9 µM | GI50 [47]: 5.58 µM | TGI [47]: 18.4 µM | GI50 [48]: 13.6 µM | TGI [48]: 27.8 µM | GI50 [49]: 39.3 µM | TGI [49]: > 100 µM | GI50 [50]: 22.5 µM | TGI [50]: 37.3 µM | GI50 [51]: 19 µM | TGI [51]: 55.7 µM | GI50 [52]: 19.9 µM | TGI [52]: 55.3 µM
